Test results reported in patent US20220354818A1, “METHODS FOR TREATING BRAIN INJURY OR COGNITIVE DYSFUNCTION BY PHARMACOLOGICAL ENHANCMENT OF M-TYPE POTASSIUM ION CURRENTS IN NEURONS” (Advanced Neuroresearch Therapeutics LLC, priority 2019, published 2022).
“Also recorded” adds a separate entry of the source.

Legend:
[1] = system: mice subjected to one blunt TBI (CCCI); assay: Dosage optimization: spontaneous myoclonic seizures after one blunt TBI (CCCI); assay type: in vivo, mouse; details: RL648_81 0.03, 0.1 and 0.3 mg/kg i.p. once 30 minutes post-TBI
Protocol: An additional KCNQ2/3-specific compound, RL648_81 was also administered in the same manner (0.03 mg/kg, 0.1 mg/kg, and 0.3 mg/kg). […] To monitor the occurrence of spontaneous myoclonic seizures after, the mice were video/EEG monitored from the second to the fourth day after the TBI (72 hours total).

[2] = system: cortical neurons; assay: In vivo two-photon calcium imaging of cortical neurons through a cranial window after TBI; details: living mouse brain
Text: Referring now to FIG. 9, another embodiment of the present invention concerns in vivo imaging of intracellular calcium levels in neurons from living brain in vivo, as a reporter of activity/hyperactivity. The genetically-encoded calcium reporter, GCaMP6f, was used in transgenic mice in which the reporter is expressed in critical subsets of brain neurons, allowing in vivo recordings of neurons of living brain, as a reporter of activity/hyperactivity in cortex induced by TBI, the first event in the hypothesis of the present invention, which causes TBI-induced brain damage (See, e.g., FIG. 1). For these experiments two-photon confocal live imaging of mouse cortical neurons through a cortical window was used. Live video records of the activity of cortical neurons in mice before and after TBI were made.

[3] = system: neurons of the dentate gyrus of the hippocampus; assay: Ex vivo brain-slice calcium imaging (GCaMP6f) with kainic acid stimulation after TBI; assay type: in vivo, mouse; details: RL648_81 30 minutes after blunt TBI
Protocol: In another embodiment of the present invention, ex vivo imaging of intracellular calcium levels in neurons, which are a reporter of activity or hyper-activity of neurons, were assayed in the brain slices using transgenic mice expressing the genetically encoded indicator of calcium levels, GCaMP6f expressed only in neurons.
Turning now to FIG. 8, the chemo-convulsant, kainic acid (KA), was used to stimulate neurons from brain slices of the dentate gyms (DG) of the hippocampus (the part of the brain where most new memories are thought to form) from sham mice, mice subjected to a TBI but not drug or TBI followed by RL-648_81.

[4] = system: mice subjected to one blunt TBI, pentylenetetrazol (PTZ); assay: PTZ-induced seizure susceptibility after one blunt TBI (CCCI); assay type: in vivo, mouse; details: RL648_81 at 0.1 mg/kg; PTZ 35 mg/kg s.c. fifth day post-TBI
Text: Stimulation with PTZ induced the occurrence of clonic and tonic-clonic seizures in TBI-subjected mice.

[5] = system: sympathetic neuron; assay: Action potential firing in a sympathetic neuron, current-clamp
Text: Various currents are applied in “current-clamp” mode 44 ranging from 50 pA to −100 pA, and the resulting AP firing recorded.

Structure (SMILES)	occurrence of TBI-induced myoclonic seizures [1]	TBI-induced hyper-excitability in cortex imaged in vivo [2]	TBI-induced increase in hyper-activity in response to kainic acid stimulation (hippocampal slices, ex vivo) [3]	occurrence of PTZ-induced seizures [4]	action potential firing in response to stimuli [5]
CCOC(=O)Nc1ccc(NCc2ccc(C(F)(F)F)cc2)c(F)c1N [RL648_81]	measurably reduced the occurrence of TBI-induced myoclonic seizures	prevents TBI-induced hyper-excitability in cortex	reduces the increased seizure susceptibility in brain slices; also recorded: completely abolished	completely blocked the occurrence of PTZ-induced seizures	
O=C1N(c2ccccc2)c2ccccc2C1(Cc1ccncc1)Cc1ccncc1 [leopardine]					out-of-control AP firing
